Reference: US9732091B2, “Tryptophanol-derived oxazoloisoindolinones: small-molecule P53 activators” (UNIVERSIDADE DO PORTO, priority 2013, dated 2017)

What was measured:
HCT116 p53^−/− = test: SRB growth inhibition assay in HCT116 p53^−/− colon carcinoma cells; format: cell-based, human; conditions: Homo sapiens, HCT-116, 48 hours incubation, mean±S.E.M.
Protocol: Tumor cells were plated at 5.0×10^3 cells/well in 96-well plates and incubated for 24 hours. Cells were then exposed to serial dilutions of SLMP53-1, CP-31398 or PRIMA-1 (from 1.85 to 150 μM). The effect of the compounds was analyzed following 48 hours incubation, using the sulforhodamine B (SRB) assay. The solvent DMSO corresponding to the maximum concentration used in these assays (0.025%) was included as control. The GI50 value, the concentration of compound that causes 50% growth inhibition, was calculated for the tested compounds. Results are the mean±S.E.M. of three independent experiments.

mutant p53 R273H = target: T1, mutant p53 R273H (Homo sapiens, UniProt P04637, R273H); test: reactivation of mutant p53 in yeast (growth, CFU), R273H; format: cell-based; conditions: 10 μM; yeast expressing R273H; 44 hours
T1 construct: expressed in transfected cells
Protocol: FIG. 6 illustrates that SLMP53-1 reactivates mutant p53s R273H, R175H and R280K in yeast. Yeast cells expressing R273H, R280K, Y220C or R175H were incubated in selective medium with 10 μM of SLMP53-1, 10 μM of CP-31398 (for R273H), 10 μM of PRIMA-1 (for R175H and R280K), 50 μM of PhiKan 083 (for Y220C) or DMSO only, for 44 hours. CP-31398, PRIMA-1 and PhiKan 083 were used as positive controls. Results are plotted setting as 100% growth the number of CFU obtained in the presence of DMSO only.
It is also shown that SLMP53-1 can reactivate some mutant p53 forms, particularly R273H, R280K and R175H (FIG. 6).

[1] = test system: MDA-MB-231 cells (mutant p53 R280K); test: sensitization to etoposide and doxorubicin, SRB assay, MDA-MB-231; format: cell-based, human
Protocol: FIG. 9 illustrates that SLMP53-1 sensitizes breast cancer MDA-MB-231 cells to the effects of etoposide and doxorubicin. The MDA-MB-231 tumor cells (with the mutant p53 R280K) were treated for 48 hours with increasing concentrations of etoposide ([…] to 6.00 μM) or doxorubicin (187.5 to 750.0 nM) in the presence of a very low concentration (between GI5 to GI10; 4 μM) of SLMP53-1 or with DMSO only. Effect of compounds on cell growth was analyzed following 48 hours incubation, using the sulforhodamine B (SRB) assay. Results are mean±SEM of three to four independent experiments.
It was also investigated if SLMP53-1 increased the sensitivity of MDA-MB-231 cells to the effects of various concentrations of etoposide (0.38 to 6.00 μM) and doxorubicin (187.5 to 750.0 nM). For that, a low concentration of SLMP53-1 (approximately the GI5 to GI10 concentration; 4 μM; without significant anti-proliferative effects on tumor cell lines) was used. […] Particularly, for 0.38 μM etoposide (for which an anti-proliferative effect is not observed), a 25% decrease of tumor cell growth was obtained in the presence of 4 μM of SLMP53-1.

human wt p53 = target: T2, human wt p53 (Homo sapiens, UniProt P04637); test: yeast-based assay, yeast cells expressing human wt p53 (growth by CFU counts, cell cycle, actin Western blot)
T2 construct: expressed in transfected cells
Protocol: FIG. 1 illustrates that SLMP53-1 and SLMP53-2 increase the p53 effects in yeast. Yeast cells expressing human wt p53 and transformed with the empty vector (control yeast) were incubated in selective induction medium in the presence of 0.1-25 μM compound or DMSO only, for 42 hours. (A) Effect of 10 μM SLMP53-1 and SLMP53-2 on the p53-induced yeast growth inhibition. Results are plotted setting as one unit the p53-induced growth inhibition in the presence of DMSO only. Growth was estimated by colony-forming unit (CFU) counts. […] (B) Dose-response curve for SLMP53-1 in yeast cells expressing human p53 and control yeast. Cells were incubated in selective medium with 0.1-25 μM of SLMP53-1 or DMSO only. Results are plotted setting as 100% growth inhibition the number of CFU obtained in the presence of DMSO only. Data are mean±S.E.M. of three independent experiments (*P<0.05; unpaired Student's t-test). (C) Effect of SLMP53-1 and SLMP53-2 on p53-induced S-phase cell cycle arrest in yeast. Cell cycle phases were analyzed by flow cytometry using Sytox Green and quantified using ModFit LT software; quantification of cell cycle phases represent the mean values. (D) Increase of p53-induced actin protein expression levels by SLMP53-1 and SLMP53-2 in yeast expressing p53. Western Blot band intensity was quantified using Pgk1p as loading control (with Bio-Profile Bio-1D++ software).
Using a yeast-based screening approach, the chiral compounds SLMP53-1 and SLMP53-2 were identified as potential activators of wt p53, from a chemical library of tryptophanol-derived oxazoloisoindolinones with general formula (I) shown in FIG. 1, wherein X, R^1, R^2, R^3, R^4, R^5, R^6, R^7, R^8, R^9 and R^10 are as defined herein, as well as their stereoisomers, enantiomers, ra.cemates, tautomers thereof or mixtures thereof; or a pharmaceutically acceptable salt, solvate or prodrug thereof. In the yeast cell model, compounds SLMP53-1 and SLMP53-2 increased the previously reported (Coutinho et al. FEBS Lett. 2009, 583, 3582-3588) p53-induced growth inhibition (FIGS. 1A and B) and S-phase cell cycle arrest (FIG. 1C).

HCT116 p53^−/− tumors = test: xenograft mouse model, HCT116 p53^−/− tumors; format: in vivo, BALB/c mice; conditions: four intraperitoneal injections of 50 mg/kg, preliminary
Protocol: FIG. 10 illustrates the antitumor activity of SLMP53-1 in vivo. BALB/c mice, 4-6 weeks old, were implanted subcutaneous xenografts using 1.5×10^6 HCT116 p53^+/+ or HCT116 p53^−/− cells. The treatment was initiated when palpable tumors were established (14 days after the cells were injected), and consisted in 4 intraperitoneal injections (2× per week) of vehicle (control) or 50 mg/kg of SLMP53-1. Xenografts were measured during 24 days. Relative tumor volumes were plotted for control and treated groups by dividing the average tumor volume for each data point by average starting tumor volume.
Currently, the toxicity and antitumor activity of SLMP53-1 are under study in vivo using xenograft mouse models. […] Because p53-null tumors were not suppressed, it was confirmed that SLMP53-1 inhibited the tumor growth in a wt p53-dependent manner.

## C[C@]12OC[C@H](Cc3c[nH]c4ccccc34)N1C(=O)c1ccccc12 [SLMP53-1]
HCT116 p53^−/−
  GI50: 34 ± 3.5 µM
Mutant p53 R273H
  yeast growth inhibition: significant growth inhibition
[1]; 0.38 μM etoposide in the presence of 4 μM of SLMP53-1
  decrease of tumor cell growth: 25%
[1]; 4 μM SLMP53-1, three concentrations tested, 48 hours
  etoposide/doxorubicin-induced growth inhibition: increased
Human wt p53; yeast expressing human wt p53, 10 μM, 42 hours, vs DMSO only
  p53-induced growth inhibition: increased
Human wt p53; yeast expressing human wt p53, flow cytometry
  p53-induced S-phase cell cycle arrest: increased
Human wt p53; yeast expressing p53, Western blot, vs DMSO only
  actin protein levels: increased the actin protein levels
HCT116 p53^−/− tumors
  tumor growth: without apparent effects
